Laboratory results taken from the supplement of paper PMC10307832.

How the values were obtained:
Experiment in all cases: relative viability (nuclei count vs DMSO), 5 days (fraction); higher = more cells survive
HCC-366 = test system: HCC-366
Outline: (§1)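 Medians of duplicate plates are given as relative viability. That measure is the nuclei count in treated wells divided by the count in vehicle wells. Counts were taken on 4× images of lung cancer cell lines in 1536-well plates, 5 days after pin-tool dosing the day after seeding with one drug alone or a fixed anchor-drug dose plus five library-drug doses (not always all listed) in √10 steps.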

NCI-H1993 = test system: NCI-H1993
Outline: as §1

ChaGo-K-1 = test system: ChaGo-K-1
Outline: as §1

EMC-BAC-2 = test system: EMC-BAC-2
Outline: as §1

NCI-H2126 = test system: NCI-H2126
Outline: as §1

NCI-H2228 = test system: NCI-H2228
Outline: as §1

LC-2-ad = test system: LC-2-ad
Outline: as §1

A-427 = test system: A-427
Outline: as §1

NCI-H1944 = test system: NCI-H1944
Outline: as §1

NCI-H838 = test system: NCI-H838
Outline: as §1

UMC-11 = test system: UMC-11
Outline: as §1

COR-L23 = test system: COR-L23
Outline: as §1

NCI-H23 = test system: NCI-H23
Outline: as §1

NCI-H2009 = test system: NCI-H2009
Outline: as §1

NCI-H2405 = test system: NCI-H2405
Outline: as §1

ABC-1 = test system: ABC-1
Outline: as §1

HARA = test system: HARA
Outline: as §1

NCI-H1734 = test system: NCI-H1734
Outline: as §1

NCI-H1793 = test system: NCI-H1793
Outline: as §1

SK-LU-1 = test system: SK-LU-1
Outline: as §1

HCC-15 = test system: HCC-15
Outline: as §1

HCC-78 = test system: HCC-78
Outline: as §1

NCI-H2023 = test system: NCI-H2023
Outline: as §1

## Oc1nc(-c2ccc(C(F)(F)F)cc2)nc2c1CSCC2 [XAV939] + N=C(N)NC(=N)NCCc1ccccc1 [Phenformin] (partner 250 µM)
HCC-366; first compound 0.08 µM
  relative viability: 0.638
HCC-366; first compound 0.253 µM
  relative viability: 0.596
HCC-366; first compound 0.8 µM
  relative viability: 0.65
HCC-366; first compound 2.53 µM
  relative viability: 0.634
NCI-H1993; first compound 0.08 µM
  relative viability: 0.479
NCI-H1993; first compound 0.253 µM
  relative viability: 0.526
NCI-H1993; first compound 0.8 µM
  relative viability: 0.524
NCI-H1993; first compound 2.53 µM
  relative viability: 0.511
ChaGo-K-1; first compound 0.08 µM
  relative viability: 0.51
ChaGo-K-1; first compound 0.253 µM
  relative viability: 0.476
ChaGo-K-1; first compound 0.8 µM
  relative viability: 0.412
ChaGo-K-1; first compound 2.53 µM
  relative viability: 0.409
EMC-BAC-2; first compound 0.08 µM
  relative viability: 0.551
EMC-BAC-2; first compound 0.253 µM
  relative viability: 0.459
EMC-BAC-2; first compound 0.8 µM
  relative viability: 0.424
EMC-BAC-2; first compound 2.53 µM
  relative viability: 0.288
NCI-H2126; first compound 0.08 µM
  relative viability: 0.577
NCI-H2126; first compound 0.253 µM
  relative viability: 0.494
NCI-H2126; first compound 0.8 µM
  relative viability: 0.48
NCI-H2126; first compound 2.53 µM
  relative viability: 0.516
NCI-H2228; first compound 0.08 µM
  relative viability: 0.3
NCI-H2228; first compound 0.253 µM
  relative viability: 0.328
NCI-H2228; first compound 0.8 µM
  relative viability: 0.296
NCI-H2228; first compound 2.53 µM
  relative viability: 0.252
LC-2-ad; first compound 0.08 µM
  relative viability: 0.638
LC-2-ad; first compound 0.253 µM
  relative viability: 0.571
LC-2-ad; first compound 0.8 µM
  relative viability: 0.569
LC-2-ad; first compound 2.53 µM
  relative viability: 0.575
A-427; first compound 0.08 µM
  relative viability: 0.365
A-427; first compound 0.253 µM
  relative viability: 0.328
A-427; first compound 0.8 µM
  relative viability: 0.314
A-427; first compound 2.53 µM
  relative viability: 0.294
NCI-H1944; first compound 0.08 µM
  relative viability: 0.233
NCI-H1944; first compound 0.253 µM
  relative viability: 0.198
NCI-H1944; first compound 0.8 µM
  relative viability: 0.199
NCI-H1944; first compound 2.53 µM
  relative viability: 0.17
NCI-H838; first compound 0.08 µM
  relative viability: 0.649
NCI-H838; first compound 0.253 µM
  relative viability: 0.557
NCI-H838; first compound 0.8 µM
  relative viability: 0.521
NCI-H838; first compound 2.53 µM
  relative viability: 0.395
UMC-11; first compound 0.08 µM
  relative viability: 0.328
UMC-11; first compound 0.253 µM
  relative viability: 0.32
UMC-11; first compound 0.8 µM
  relative viability: 0.248
UMC-11; first compound 2.53 µM
  relative viability: 0.201
COR-L23; first compound 0.08 µM
  relative viability: 0.438
COR-L23; first compound 0.253 µM
  relative viability: 0.44
COR-L23; first compound 0.8 µM
  relative viability: 0.466
COR-L23; first compound 2.53 µM
  relative viability: 0.405
NCI-H23; first compound 0.08 µM
  relative viability: 0.892
NCI-H23; first compound 0.253 µM
  relative viability: 0.722
NCI-H23; first compound 0.8 µM
  relative viability: 0.613
NCI-H23; first compound 2.53 µM
  relative viability: 0.806
NCI-H2009; first compound 0.08 µM
  relative viability: 0.524
NCI-H2009; first compound 0.253 µM
  relative viability: 0.484
NCI-H2009; first compound 0.8 µM
  relative viability: 0.421
NCI-H2009; first compound 2.53 µM
  relative viability: 0.441
NCI-H2405; first compound 0.08 µM
  relative viability: 0.373
NCI-H2405; first compound 0.253 µM
  relative viability: 0.399
NCI-H2405; first compound 0.8 µM
  relative viability: 0.363
NCI-H2405; first compound 2.53 µM
  relative viability: 0.413
ABC-1; first compound 0.08 µM
  relative viability: 0.212
ABC-1; first compound 0.253 µM
  relative viability: 0.272
ABC-1; first compound 0.8 µM
  relative viability: 0.256
ABC-1; first compound 2.53 µM
  relative viability: 0.233
HARA; first compound 0.08 µM
  relative viability: 0.425
HARA; first compound 0.253 µM
  relative viability: 0.448
HARA; first compound 0.8 µM
  relative viability: 0.452
HARA; first compound 2.53 µM
  relative viability: 0.432
NCI-H1734; first compound 0.08 µM
  relative viability: 0.44
NCI-H1734; first compound 0.253 µM
  relative viability: 0.386
NCI-H1734; first compound 0.8 µM
  relative viability: 0.337
NCI-H1734; first compound 2.53 µM
  relative viability: 0.393
NCI-H1793; first compound 0.08 µM
  relative viability: 0.495
NCI-H1793; first compound 0.253 µM
  relative viability: 0.389
NCI-H1793; first compound 0.8 µM
  relative viability: 0.302
NCI-H1793; first compound 2.53 µM
  relative viability: 0.354
SK-LU-1; first compound 0.08 µM
  relative viability: 0.548
SK-LU-1; first compound 0.253 µM
  relative viability: 0.513
SK-LU-1; first compound 0.8 µM
  relative viability: 0.447
SK-LU-1; first compound 2.53 µM
  relative viability: 0.556
HCC-15; first compound 0.08 µM
  relative viability: 0.634
HCC-15; first compound 0.253 µM
  relative viability: 0.457
HCC-15; first compound 0.8 µM
  relative viability: 0.481
HCC-15; first compound 2.53 µM
  relative viability: 0.481
HCC-78; first compound 0.08 µM
  relative viability: 0.711
HCC-78; first compound 0.253 µM
  relative viability: 0.62
HCC-78; first compound 0.8 µM
  relative viability: 0.66
HCC-78; first compound 2.53 µM
  relative viability: 0.516
NCI-H2023; first compound 0.08 µM
  relative viability: 0.424
NCI-H2023; first compound 0.253 µM
  relative viability: 0.391
NCI-H2023; first compound 0.8 µM
  relative viability: 0.365
NCI-H2023; first compound 2.53 µM
  relative viability: 0.402
